Measurements published in ChEMBL document CHEMBL4251633, “Design, synthesis, biological evaluation and cocrystal structures with tubulin of chiral β-lactam bridged combretastatin A-4 analogues as potent antitumor agents” (Eur J Med Chem, 2018).
Activity calls are given as the source filed them. No cut-off for these calls is given here.

What was measured:
SK-OV-3 = assay: Antiproliferative activity against human SKOV3 cells after 48 hrs by MTT assay; settings: SK-OV-3, 48 h
HeLa [1] = assay: Antiproliferative activity against human HeLa cells after 48 hrs by MTT assay; assay type: functional, cell-based
A2780 = assay: cells; settings: Homo sapiens, A2780, 48 h
Description: Antiproliferative activity against human A2780 cells after 48 hrs by MTT assay

MDA-MB-231 = assay: Antiproliferative activity against human MDA-MB-231 cells after 48 hrs by MTT assay; assay type: functional, cell-based; settings: MDA-MB-231, 48 h
Homo sapiens = species on record: Homo sapiens; assay: Disruption of microtubule structure in human SKOV3 cells assessed as decrease in density at 50 nM after 24 hrs by DAPI staining based immunofluorescence assay; assay type: cell-based
HeLa [2] = assay: Inhibition of alpha-tubulin polymerization in human HeLa cells assessed as increase in ratio of supernatant faction to pellet fraction at 500 nM after 6 hrs by Western blot analysis; assay type: cell-based
HeLa [3] = assay: Induction of apoptosis in human HeLa cells assessed as live cells at 100 nM after 48 hrs by Annexin V-FITC/propidium iodide staining based flow cytometry (reference value: 96.5%); assay type: functional
HeLa [4] = assay: Induction of apoptosis in human HeLa cells assessed as necrotic cells at 100 nM after 48 hrs by Annexin V-FITC/propidium iodide staining based flow cytometry (reference value: 0.9%); assay type: functional
HeLa [5] = assay: Induction of apoptosis in human HeLa cells assessed as late apoptotic cells at 100 nM after 48 hrs by Annexin V-FITC/propidium iodide staining based flow cytometry (reference value: 2%); assay type: functional
HeLa [6] = assay: Cell cycle arrest in human HeLa cells assessed as accumulation at G2/M-phase at 50 nM after 24 hrs by propidium iodide staining based flow cytometry; assay type: functional
HeLa [7] = assay: Induction of apoptosis in human HeLa cells assessed as early apoptotic cells at 100 nM after 48 hrs by Annexin V-FITC/propidium iodide staining based flow cytometry (reference value: 0.7%); assay type: functional

SMILES	IC50 (SK-OV-3)	IC50 (HeLa [1])	IC50 (A2780)	IC50 (MDA-MB-231)	Activity (Homo sapiens)	tubulin polymerization inhibition (active/inactive) (HeLa [2])	Activity (HeLa [3])	Activity (HeLa [4])	Activity (HeLa [5])	Activity (HeLa [6])	Activity (HeLa [7])
COc1ccc([C@@H]2[C@H](C)C(=O)N2c2cc(OC)c(OC)c(OC)c2)cc1O	3270 nM	3920 nM	5750 nM	5140 nM							
COc1ccc([C@H]2[C@H](C)C(=O)N2c2cc(OC)c(OC)c(OC)c2)cc1N	8 nM	35 nM	21 nM	17 nM							
C=C1C(=O)N(c2cc(OC)c(OC)c(OC)c2)[C@H]1c1ccc(C)cc1	265 nM	209 nM	127 nM	193 nM							
C=CC(=O)Nc1cc([C@H]2C(=C)C(=O)N2c2cc(OC)c(OC)c(OC)c2)ccc1OC	63 nM	125 nM	65 nM	34 nM							
C=C1C(=O)N(c2cc(OC)c(OC)c(OC)c2)[C@H]1c1ccc(OC)c(OS(=O)(=O)c2ccc(C)cc2)c1	12100 nM	17800 nM	> 20000 nM	12800 nM							
COc1ccc([C@H]2/C(=C/c3ccc(C(C)(C)C)cc3)C(=O)N2c2cc(OC)c(OC)c(OC)c2)cc1O	> 20000 nM	> 20000 nM	> 20000 nM	> 20000 nM							
COc1ccc([C@H]2[C@H](NC(C)=O)C(=O)N2c2cc(OC)c(OC)c(OC)c2)cc1O	32 nM	35 nM	33 nM	47 nM							
C=C1C(=O)N(c2cc(OC)c(OC)c(OC)c2)[C@H]1c1cccc(O)c1	14500 nM	15000 nM	10500 nM	6640 nM							
C=C1C(=O)N(c2ccc(OC)cc2)[C@H]1c1ccc(OC)c(O)c1	> 20000 nM	> 20000 nM	> 20000 nM	> 20000 nM							
CC(=O)O[C@H]1C(=O)[C@@]2(C)[C@H]([C@H](OC(=O)c3ccccc3)[C@]3(O)C[C@H](OC(=O)[C@H](O)[C@@H](NC(=O)c4ccccc4)c4ccccc4)C(C)=C1C3(C)C)[C@]1(OC(C)=O)CO[C@@H]1C[C@@H]2O					inactive	inactive					
C=C1C(=O)N(c2cc(OC)c(OC)c(OC)c2)[C@H]1c1ccc(OC)cc1	> 20000 nM	> 20000 nM	> 20000 nM	> 20000 nM							
C=C1C(=O)N(c2cc(OC)c(OC)c(OC)c2)[C@H]1c1ccc(OC)c(OCC)c1	1140 nM	2030 nM	854 nM	958 nM							
COc1ccc([C@@H]2N(c3cc(OC)c(OC)c(OC)c3)C(=O)[C@]2(O)CO)cc1O	2070 nM	2100 nM	1540 nM	2320 nM							
COc1ccc(/C=C\c2cc(OC)c(OC)c(OC)c2)cc1O [COMBRETASTATIN A4]					Active	Active	30%	7.5%	29.2%	100%	33.3%
C=C1C(=O)N(c2cc(OC)c(OC)c(OC)c2)[C@H]1c1ccc(OC)c(OC)c1	2260 nM	3160 nM	854 nM	1020 nM							
COc1ccc([C@H]2[C@@H](C)C(=O)N2c2cc(OC)c(OC)c(OC)c2)cc1O	31 to 63 nM	31 to 63 nM	31 to 63 nM	31 to 63 nM							
COc1ccc([C@H]2[C@H](n3cc(CO)nn3)C(=O)N2c2cc(OC)c(OC)c(OC)c2)cc1O	83 nM	33 nM	15 nM	28 nM							
COc1ccc([C@H]2/C(=C/c3ccccc3)C(=O)N2c2cc(OC)c(OC)c(OC)c2)cc1O	2990 nM	4730 nM	2540 nM	3160 nM							
COc1ccc([C@H]2[C@@H](OC(=O)CCC(=O)O)C(=O)N2c2cc(OC)c(OC)c(OC)c2)cc1O	210 nM	178 nM	79 nM	102 nM							
C=C1C(=O)N(c2cc(OC)c(OC)c(OC)c2)[C@H]1c1ccc(OC)c(N)c1	36 nM	32 nM	31 nM	40 nM							
COC[C@@]1(OC)C(=O)N(c2cc(OC)c(OC)c(OC)c2)[C@H]1c1ccc(OC)c(O)c1	> 20000 nM	> 20000 nM	17700 nM	> 20000 nM							
C=C1C(=O)N(c2cc(OC)c(OC)c(OC)c2)[C@H]1c1ccc(OC)c(OC(C)C)c1	18000 nM	> 20000 nM	11300 nM	15900 nM							
COc1ccc([C@@H]2CC(=O)N2c2cc(OC)c(OC)c(OC)c2)cc1O	24 nM	30 nM	22 nM	28 nM							
COc1ccc([C@H]2[C@@H](CO)C(=O)N2c2cc(OC)c(OC)c(OC)c2)cc1N	54 nM	328 nM	327 nM	107 nM							
C=C1C(=O)N(c2cc(OC)c(OC)c(OC)c2)[C@H]1c1ccc(OC)c(O[Si](C)(C)C(C)(C)C)c1	414 nM	657 nM	287 nM	560 nM							
C=C1C(=O)N(c2cc(OC)c(OC)c(OC)c2)[C@H]1c1ccc(OC)c(OC(C)=O)c1	104 nM	116 nM	81 nM	133 nM							
COc1ccc([C@H]2[C@H](Br)C(=O)N2c2cc(OC)c(OC)c(OC)c2)cc1O	9 nM	13 nM	8 nM	10 nM							
C=C1C(=O)N(c2cc(OC)c(OC)c(OC)c2)[C@H]1c1ccc(OC)c(OCc2ccccc2)c1	> 20000 nM	> 20000 nM	> 20000 nM	> 20000 nM							
C=C1C(=O)N(c2cc(OC)c(OC)c(OC)c2)[C@H]1c1ccc(OC)c(Cl)c1	341 nM	371 nM	316 nM	512 nM							

More lines, main results first:

IC50 (SK-OV-3)	IC50 (HeLa [1])	IC50 (A2780)	IC50 (MDA-MB-231)	SMILES	Activity (Homo sapiens)	tubulin polymerization inhibition (active/inactive) (HeLa [2])	Activity (HeLa [3])	Activity (HeLa [4])	Activity (HeLa [5])	Activity (HeLa [6])	Activity (HeLa [7])
365 nM	547 nM	215 nM	784 nM	C=C1C(=O)N(c2cc(OC)c(OC)c(OC)c2)[C@H]1c1cc(OC)c(OC)c(OC)c1							
650 nM	807 nM	771 nM	1080 nM	COc1ccc([C@@H]2[C@@H](C)C(=O)N2c2cc(OC)c(OC)c(OC)c2)cc1O							
> 20000 nM	> 20000 nM	> 20000 nM	> 20000 nM	C=C1C(=O)N(c2cc(OC)c(OC)c(OC)c2)[C@H]1c1ccccc1							
2210 nM	1790 nM	1220 nM	1960 nM	COc1ccc([C@H]2[C@@H](OC)C(=O)N2c2cc(OC)c(OC)c(OC)c2)cc1O							
8 nM	44 nM	35 nM	27 nM	COc1ccc([C@H]2[C@H](CO)C(=O)N2c2cc(OC)c(OC)c(OC)c2)cc1N							
59 nM	215 nM	81 nM	63 nM	COc1ccc([C@H]2[C@@H](C)C(=O)N2c2cc(OC)c(OC)c(OC)c2)cc1N							
45 nM	24 nM	27 nM	47 nM	COc1ccc([C@H]2[C@H](NC(=O)c3ccccc3)C(=O)N2c2cc(OC)c(OC)c(OC)c2)cc1O							
5260 nM	6890 nM	3420 nM	5620 nM	C=C1C(=O)N(c2cc(OC)c(OC)c(OC)c2)[C@H]1c1ccc(OC)c(OCCC)c1							
1390 nM	2170 nM	677 nM	1370 nM	C=C1C(=O)N(c2cccc(OC)c2)[C@H]1c1ccc(OC)c(O)c1							
175 nM	295 nM	112 nM	125 nM	C=C1C(=O)N(c2cc(OC)cc(OC)c2)[C@H]1c1ccc(OC)c(O)c1							
136 nM	131 nM	121 nM	112 nM	C=C1C(=O)N(c2cc(OC)c(OC)c(OC)c2)[C@H]1c1ccc(OC)c(F)c1							
> 20000 nM	> 20000 nM	> 20000 nM	> 20000 nM	C=C1C(=O)N(c2ccccc2)[C@H]1c1ccccc1							
231 nM	192 nM	164 nM	254 nM	COc1ccc([C@H]2[C@H](NS(C)(=O)=O)C(=O)N2c2cc(OC)c(OC)c(OC)c2)cc1O							
